From patent US12319640B2, “Cyclic diones as herbicidal compounds” (SYNGENTA CROP PROTECTION AG, priority 2019, dated 2025)

Assays:
Assay in all cases: Glasshouse herbicide test, pre- and post-emergence
Format in all cases: in vivo
Avena fatua (AVEFA) = conditions: 250 g/h, evaluated after 13 days, five-point scale; for percentage damage caused to the plant, AVEFA POST: post-emergence; for percentage damage caused to the plant, AVEFA PRE: pre-emergence
Method: (§1) Seeds of a variety of test species are sown in standard soil in pots (Lolium perenne (LOLPE), Setaria faberi (SETFA), Alopecurus myosuroides (ALOMY), Echinochloa crus-galli (ECHCG), Avena fatua (AVEFA)). After cultivation for one day (pre-emergence) or after 8 days cultivation (post-emergence) under controlled conditions in a glasshouse (at 24/16° C., day/night; 14 hours light; 65% humidity), the plants are sprayed with an aqueous spray solution derived from the formulation of the technical active ingredient in acetone/water (50:50) solution containing 0.5% Tween 20 (polyoxyethelyene sorbitan monolaurate, CAS RN 9005-64-5). Compounds are applied at 250 g/h. The test plants are then grown in a glasshouse under controlled conditions in a glasshouse (at 24/16° C., day/night; 14 hours light; 65% humidity) and watered twice daily. After 13 days for pre and post-emergence, the test is evaluated for the percentage damage caused to the plant. The biological activities are shown in the following table on a five-point scale (5=80-100%; 4=60-79%; 3=40-59%; 2=20-39%; 1=0-19%).

Lolium perenne (LOLPE) = conditions: 250 g/h, evaluated after 13 days, five-point scale; for percentage damage caused to the plant, LOLPE POST: post-emergence; for percentage damage caused to the plant, LOLPE PRE: pre-emergence
Method: as §1

[1] = test system: Alopecurus myosuroides (ALOMY); conditions: 250 g/h, evaluated after 13 days, five-point scale; for percentage damage caused to the plant, ALOMY POST: post-emergence; for percentage damage caused to the plant, ALOMY PRE: pre-emergence
Method: as §1

Setaria faberi (SETFA) = conditions: 250 g/h, evaluated after 13 days, five-point scale; for percentage damage caused to the plant, SETFA POST: post-emergence; for percentage damage caused to the plant, SETFA PRE: pre-emergence
Method: as §1

[2] = test system: Echinochloa crus-galli (ECHCG); conditions: 250 g/h, evaluated after 13 days, five-point scale; for percentage damage caused to the plant, ECHCG POST: post-emergence; for percentage damage caused to the plant, ECHCG PRE: pre-emergence
Method: as §1

SMILES: CC#Cc1cc(C)c(C2C(=O)CC3(CCC(C(=O)NC(C)(C)C)CC3)CC2=O)c(C)c1 (stereo not drawn) [Compound 1.013]
- percentage damage caused to the plant, AVEFA POST (Avena fatua (AVEFA)): 4 (4=60-79%)
- percentage damage caused to the plant, AVEFA PRE (Avena fatua (AVEFA)): 1 (1=0-19%)
- percentage damage caused to the plant, LOLPE POST (Lolium perenne (LOLPE)): 5 (5=80-100%)
- percentage damage caused to the plant, LOLPE PRE (Lolium perenne (LOLPE)): 5 (5=80-100%)
- percentage damage caused to the plant, ALOMY POST [1]: 5 (5=80-100%)
- percentage damage caused to the plant, ALOMY PRE [1]: 3 (3=40-59%)
- percentage damage caused to the plant, SETFA POST (Setaria faberi (SETFA)): 5 (5=80-100%)
- percentage damage caused to the plant, SETFA PRE (Setaria faberi (SETFA)): 5 (5=80-100%)
- percentage damage caused to the plant, ECHCG POST [2]: 5 (5=80-100%)
- percentage damage caused to the plant, ECHCG PRE [2]: 5 (5=80-100%)

SMILES: CC#Cc1cc(C)c(C2C(=O)CC3(CCC(C(=O)NC(C)(C#N)CC)CC3)CC2=O)c(C)c1 (stereo not drawn) [Compound 1.014]
- percentage damage caused to the plant, AVEFA POST (Avena fatua (AVEFA)): 5 (5=80-100%)
- percentage damage caused to the plant, AVEFA PRE (Avena fatua (AVEFA)): 2 (2=20-39%)
- percentage damage caused to the plant, LOLPE POST (Lolium perenne (LOLPE)): 5 (5=80-100%)
- percentage damage caused to the plant, LOLPE PRE (Lolium perenne (LOLPE)): 5 (5=80-100%)
- percentage damage caused to the plant, ALOMY POST [1]: 5 (5=80-100%)
- percentage damage caused to the plant, ALOMY PRE [1]: 3 (3=40-59%)
- percentage damage caused to the plant, SETFA POST (Setaria faberi (SETFA)): 5 (5=80-100%)
- percentage damage caused to the plant, SETFA PRE (Setaria faberi (SETFA)): 5 (5=80-100%)
- percentage damage caused to the plant, ECHCG POST [2]: 5 (5=80-100%)
- percentage damage caused to the plant, ECHCG PRE [2]: 5 (5=80-100%)

SMILES: CC#Cc1cc(C)c(C2C(=O)CC3(CCC(C(=O)NC)CC3)CC2=O)c(OC)c1 (stereo not drawn) [Compound 1.016]
- percentage damage caused to the plant, AVEFA POST (Avena fatua (AVEFA)): 5 (5=80-100%)
- percentage damage caused to the plant, AVEFA PRE (Avena fatua (AVEFA)): 5 (5=80-100%)
- percentage damage caused to the plant, LOLPE POST (Lolium perenne (LOLPE)): 5 (5=80-100%)
- percentage damage caused to the plant, LOLPE PRE (Lolium perenne (LOLPE)): 5 (5=80-100%)
- percentage damage caused to the plant, ALOMY POST [1]: 5 (5=80-100%)
- percentage damage caused to the plant, ALOMY PRE [1]: 5 (5=80-100%)
- percentage damage caused to the plant, SETFA POST (Setaria faberi (SETFA)): 5 (5=80-100%)
- percentage damage caused to the plant, SETFA PRE (Setaria faberi (SETFA)): 5 (5=80-100%)
- percentage damage caused to the plant, ECHCG POST [2]: 5 (5=80-100%)
- percentage damage caused to the plant, ECHCG PRE [2]: 5 (5=80-100%)

SMILES: CC#Cc1cc(C)c(C2C(=O)CC3(CC2=O)CC(C(=O)NC)C3)c(C)c1 (stereo not drawn) [Compound 1.017]
- percentage damage caused to the plant, AVEFA POST (Avena fatua (AVEFA)): 5 (5=80-100%)
- percentage damage caused to the plant, AVEFA PRE (Avena fatua (AVEFA)): 5 (5=80-100%)
- percentage damage caused to the plant, LOLPE POST (Lolium perenne (LOLPE)): 5 (5=80-100%)
- percentage damage caused to the plant, LOLPE PRE (Lolium perenne (LOLPE)): 5 (5=80-100%)
- percentage damage caused to the plant, ALOMY POST [1]: 5 (5=80-100%)
- percentage damage caused to the plant, ALOMY PRE [1]: 5 (5=80-100%)
- percentage damage caused to the plant, SETFA POST (Setaria faberi (SETFA)): 5 (5=80-100%)
- percentage damage caused to the plant, SETFA PRE (Setaria faberi (SETFA)): 5 (5=80-100%)
- percentage damage caused to the plant, ECHCG POST [2]: 5 (5=80-100%)
- percentage damage caused to the plant, ECHCG PRE [2]: 5 (5=80-100%)

SMILES: CC#Cc1cc(C)c(C2C(=O)CC3(CCC(C(=O)NC)C3)CC2=O)c(C)c1 (stereo not drawn) [Compound 1.018]
- percentage damage caused to the plant, AVEFA POST (Avena fatua (AVEFA)): 5 (5=80-100%)
- percentage damage caused to the plant, AVEFA PRE (Avena fatua (AVEFA)): 5 (5=80-100%)
- percentage damage caused to the plant, LOLPE POST (Lolium perenne (LOLPE)): 5 (5=80-100%)
- percentage damage caused to the plant, LOLPE PRE (Lolium perenne (LOLPE)): 5 (5=80-100%)
- percentage damage caused to the plant, ALOMY POST [1]: 5 (5=80-100%)
- percentage damage caused to the plant, ALOMY PRE [1]: 5 (5=80-100%)
- percentage damage caused to the plant, SETFA POST (Setaria faberi (SETFA)): 5 (5=80-100%)
- percentage damage caused to the plant, SETFA PRE (Setaria faberi (SETFA)): 5 (5=80-100%)
- percentage damage caused to the plant, ECHCG POST [2]: 5 (5=80-100%)
- percentage damage caused to the plant, ECHCG PRE [2]: 5 (5=80-100%)

SMILES: CNC(=O)C1CCC2(CC1)CC(=O)C(c1c(C)cc(-c3ccc(C#N)cn3)cc1C)C(=O)C2 (stereo not drawn) [Compound 1.020]
- percentage damage caused to the plant, AVEFA POST (Avena fatua (AVEFA)): 5 (5=80-100%)
- percentage damage caused to the plant, AVEFA PRE (Avena fatua (AVEFA)): 5 (5=80-100%)
- percentage damage caused to the plant, LOLPE POST (Lolium perenne (LOLPE)): 5 (5=80-100%)
- percentage damage caused to the plant, LOLPE PRE (Lolium perenne (LOLPE)): 5 (5=80-100%)
- percentage damage caused to the plant, ALOMY POST [1]: 5 (5=80-100%)
- percentage damage caused to the plant, ALOMY PRE [1]: 5 (5=80-100%)
- percentage damage caused to the plant, SETFA POST (Setaria faberi (SETFA)): 5 (5=80-100%)
- percentage damage caused to the plant, SETFA PRE (Setaria faberi (SETFA)): 5 (5=80-100%)
- percentage damage caused to the plant, ECHCG POST [2]: 5 (5=80-100%)
- percentage damage caused to the plant, ECHCG PRE [2]: 5 (5=80-100%)
